The test system of data set [1] is Staphylococcus saprophyticus. As to the kind of experiment: Antibacterial activity against Staphylococcus saprophyticus ATCC 15305 measured after 18 hrs by broth dilution method. The class given is functional. Conditions: ATCC 15305, 18 h. (In general: In broth dilution the organism is exposed to a series of concentrations in liquid medium.)
In data set [2] the test system is Staphylococcus saprophyticus. As to the kind of experiment: Antibacterial activity against Staphylococcus saprophyticus ATCC 15305 measured after 18 hrs by agar dilution method. The settings on record: ATCC 15305, 18 h. The class given is functional.
Data set [3] in a line: Drug level assessed as Staphylococcus saprophyticus ATCC 15305 nitroreductase B mediated compound formation using 130 uM NO2-SMX measured after 200 mins in presence of NADPH-cofactor generating system by LC-MS/MS analysis. Format: ADME. The settings on record: isolated protein.
The test system of data set [4] is Staphylococcus saprophyticus. As to the kind of experiment: Antibacterial activity against Staphylococcus saprophyticus ATCC 15305 assessed as zone of inhibition at 54 ug/disc measured after 16 to 24 hrs by agar diffusion method. The class given is functional. The settings on record: read-out: DIZ. For orientation: Agar diffusion results depend on both activity and mobility in agar.

Data set [5] deals with Staphylococcus saprophyticus. As to the kind of experiment: microbe, parasite or virus in culture. Conditions: ATCC 15305, read-out: DIZ.
Description: Antibacterial activity against Staphylococcus saprophyticus ATCC 15305 assessed as zone of inhibition at 300 ug/disc measured after 16 to 24 hrs by agar diffusion method
Data set [6] in a line: Stability of the compound. Format: physicochemical.
A short description of data set [7]: Prodrug activation assessed as Staphylococcus saprophyticus ATCC 15305 nitroreductase B mediated N-OH-sulfamethoxazole formation at 2 mM in presence of NADPH-cofactor generating system by ESI-MS analysis. The settings on record: isolated protein, 2000 µM.
Data set [8] in a line: Prodrug activation assessed as Staphylococcus saprophyticus ATCC 15305 nitroreductase B mediated N-OH-sulfamethoxazole formation at 130 uM measured after 200 mins in presence of NADPH-cofactor generating system by LC-MS/MS analysis. Conditions: isolated protein.
Data set [9] is described as follows: Prodrug activation assessed as Staphylococcus saprophyticus ATCC 15305 nitroreductase B mediated […] at 2 mM in presence of NADPH-cofactor generating system by ESI-MS analysis. The settings on record: isolated protein, 2000 µM.
Data set [10] concerns Staphylococcus saprophyticus. As to the kind of experiment: Activity at Staphylococcus saprophyticus ATCC 15305 nitroreductase B by UV-vis spectrophotometry based Michaelis-Menten plot analsysis.
The nature of data set [11]: Prodrug activation assessed as Staphylococcus saprophyticus ATCC 15305 nitroreductase B mediated sulfamethoxazole formation at 130 uM measured after 200 mins in presence of NADPH-cofactor generating system by LC-MS/MS analysis. Conditions: isolated protein.
The test system of data set [12] is Staphylococcus saprophyticus. As to the kind of experiment: Antibacterial activity against Staphylococcus saprophyticus ATCC 15305 assessed as zone of inhibition at 57 ug/disc measured after 16 to 24 hrs by agar diffusion method. Format: functional.
A short description of data set [13]: Prodrug activation assessed as Staphylococcus saprophyticus ATCC 15305 nitroreductase B mediated sulfamethoxazole formation at 2 mM in presence of NADPH-cofactor generating system by ESI-MS analysis. The settings on record: isolated protein, 2000 µM.
Data set [14] is described as follows: Drug level assessed as Staphylococcus saprophyticus ATCC 15305 nitroreductase B mediated compound formation using at 2 mM NO2-SMX 2 mM in presence of NADPH-cofactor generating system by ESI-MS analysis. Format: ADME. The settings on record: isolated protein, 2000 µM.
Data set [15] is described as follows: Prodrug activation assessed as Staphylococcus saprophyticus ATCC 15305 nitroreductase B mediated […] at 130 uM measured after 200 mins in presence of NADPH-cofactor generating system by LC-MS/MS analysis. Conditions: isolated protein.
The test system of data set [16] is Staphylococcus saprophyticus. As to the kind of experiment: Antibacterial activity against Staphylococcus saprophyticus ATCC 15305 assessed as zone of inhibition at 51 ug/disc measured after 16 to 24 hrs by agar diffusion method. Conditions: read-out: DIZ. The class given is functional.
The test system of data set [17] is Staphylococcus saprophyticus. As to the kind of experiment: Antibacterial activity against Staphylococcus saprophyticus ATCC 15305 assessed as bacterial survival measured after 18 hrs by broth dilution method. The class given is functional.

The values below come from ChEMBL document CHEMBL3826959, “Modification of existing antibiotics in the form of precursor prodrugs that can be subsequently activated by nitroreductases of the target pathogen” (Bioorg Med Chem Lett, 2016).

Structures are written as SMILES. Converted amounts (≈) assume the structure as drawn. The source made the active and inactive calls. No cut-off for these calls is given here.

As usually defined, the MIC is the lowest concentration that inhibits growth of the organism. A higher MIC goes with weaker potency. Turning to `NC(=O)N/N=C/c1ccc([N+](=O)[O-])o1` [NITROFURAZONE], the MIC in data set [1] amounted to 32 µg/mL (≈ 0.162 mM); in data set [2], 128 µg/mL (≈ 0.646 mM).

Molecule `Cc1cc(NS(=O)(=O)c2ccc(NO)cc2)no1` yielded an MIC in [1] of 2050 µg/mL (≈ 7.61 mM). The Drug metabolism result in data set [3] is listed as “metabolite_detected”. Also, in [4], the zone of inhibition at 54 µg/disc came out at 10 mm.

Consider `O=C1CN(/N=C/c2ccc([N+](=O)[O-])o2)C(=O)N1` [NITROFURANTOIN], for which the MIC in data set [1] and in data set [2] was 8 µg/mL (≈ 0.0336 mM) each time. For the same molecule, in data set [5], the zone of inhibition at 300 µg/disc is 18 mm.

Take `Cc1cc(NS(=O)(=O)c2ccc(N=O)cc2)no1`: the Drug metabolism result in [3] is “metabolite_detected”. Moreover, the Stability entry in [6] is “Unstable”.

A word on the Km: it is the substrate concentration at which the rate is half of its maximum. Broadly, the kcat is the maximal rate divided by the concentration of active sites. Regarding `Cc1cc(NS(=O)(=O)c2ccc([N+](=O)[O-])cc2)no1`, the MIC in data set [1] and in [2] was 2050 µg/mL (≈ 7.23 mM) in each case. Moreover, the Drug metabolism result in data set [7] is “metabolite_detected”; in [8], “metabolite_detected”; in data set [9], “metabolite_detected”; in data set [11] it was “metabolite_detected”; in data set [13] it was “metabolite_notdetected”; in data set [14], “metabolite_detected”. Besides, the Drug metabolism result in data set [15] is recorded as “metabolite_detected”. Besides, the Km in [10] was found to be 92.6 µM. Also, in data set [10], the kcat was 2.95 s⁻¹. In data set [12], the “diameter of the inhibition zone (DIZ)” value is “inactive”.

Turning to `Cc1cc(NS(=O)(=O)c2ccc(N)cc2)no1` [SULFAMETHOXAZOLE], the MIC in [1] was determined as 4100 µg/mL (≈ 16.2 mM); in data set [2] it was 2050 µg/mL (≈ 8.09 mM). In addition, in data set [3], the Drug metabolism entry is on record as “metabolite_detected”. Moreover, the zone of inhibition at 51 µg/disc in data set [16] was found to be 16 mm. In addition, the Activity in data set [17] stood at 12%.
